Experimental data published in the supplement of paper PMC10307832.

Columns and labels:
Experiment in all cases: relative viability (nuclei count vs DMSO), 5 days (fraction); higher = more cells survive
[1] = test system: NCI-H1915
In short: (§1)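 Relative viability is defined as nuclei in treated wells over nuclei in vehicle wells. Duplicate plates were run and medians reported. Lung cancer cell lines in 1536-well plates were dosed by pin tool one day after seeding, with one drug or with a fixed anchor-drug dose plus five library-drug doses (not always all listed) in √10 steps, and nuclei were counted after 5 days.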

[2] = test system: NCI-H1944
In short: as §1

[3] = test system: NCI-H2126
In short: as §1

[4] = test system: NCI-H2347
In short: as §1

[5] = test system: NCI-H3122
In short: as §1

[6] = test system: NCI-H322M
In short: as §1

[7] = test system: NCI-H441
In short: as §1

[8] = test system: NCI-H650
In short: as §1

[9] = test system: NCI-H838
In short: as §1

[10] = test system: SK-LU-1
In short: as §1

[11] = test system: SW 1573
In short: as §1

**Q.** Which relative viability ([1]; first compound 0.003162 µM) does the source give for Cc1cn(-c2cc(NC(=O)c3ccc(C)c(Nc4nccc(-c5cccnc5)n4)c3)cc(C(F)(F)F)c2)cn1 [Nilotinib] + Cc1cc(Nc2cc(N3CCN(C)CC3)nc(Sc3ccc(NC(=O)C4CC4)cc3)n2)n[nH]1 [Tozasertib] (partner 0.1 µM) here?
**A.** 0.484

**Q.** What about the relative viability ([1]; first compound 0.01 µM) of the same molecule?
**A.** 0.457

**Q.** What about the relative viability ([1]; first compound 0.03162 µM) of the same molecule?
**A.** 0.32

**Q.** What about the relative viability ([1]; first compound 0.1 µM) of the same molecule?
**A.** 0.311

**Q.** What about the relative viability ([2]; first compound 0.001 µM) of the same molecule?
**A.** 0.248

**Q.** And the relative viability ([2]; first compound 0.003162 µM)?
**A.** 0.3

**Q.** And the relative viability ([2]; first compound 0.01 µM)?
**A.** 0.248

**Q.** And the relative viability ([2]; first compound 0.03162 µM)?
**A.** 0.197

**Q.** What about the relative viability ([3]; first compound 0.001 µM) of the same molecule?
**A.** 0.786

**Q.** What about the relative viability ([3]; first compound 0.003162 µM) of the same molecule?
**A.** 0.857

**Q.** And the relative viability ([3]; first compound 0.01 µM)?
**A.** 0.963

**Q.** And the relative viability ([3]; first compound 0.03162 µM)?
**A.** 0.599

**Q.** What about the relative viability ([3]; first compound 0.1 µM) of the same molecule?
**A.** 0.438

**Q.** And the relative viability ([4]; first compound 0.001 µM)?
**A.** 0.451

**Q.** What about the relative viability ([4]; first compound 0.003162 µM) of the same molecule?
**A.** 0.463

**Q.** What about the relative viability ([4]; first compound 0.01 µM) of the same molecule?
**A.** 0.489

**Q.** And the relative viability ([4]; first compound 0.03162 µM)?
**A.** 0.476

**Q.** And the relative viability ([4]; first compound 0.1 µM)?
**A.** 0.3

**Q.** And the relative viability ([5]; first compound 0.001 µM)?
**A.** 0.364

**Q.** What about the relative viability ([5]; first compound 0.003162 µM) of the same molecule?
**A.** 0.519

**Q.** What about the relative viability ([5]; first compound 0.01 µM) of the same molecule?
**A.** 0.436

**Q.** What about the relative viability ([5]; first compound 0.03162 µM) of the same molecule?
**A.** 0.374

**Q.** What about the relative viability ([5]; first compound 0.1 µM) of the same molecule?
**A.** 0.18

**Q.** What about the relative viability ([6]; first compound 0.001 µM) of the same molecule?
**A.** 0.471

**Q.** What about the relative viability ([6]; first compound 0.003162 µM) of the same molecule?
**A.** 0.427

**Q.** What about the relative viability ([6]; first compound 0.01 µM) of the same molecule?
**A.** 0.492

**Q.** And the relative viability ([6]; first compound 0.03162 µM)?
**A.** 0.456

**Q.** What about the relative viability ([6]; first compound 0.1 µM) of the same molecule?
**A.** 0.548

**Q.** What about the relative viability ([7]; first compound 0.001 µM) of the same molecule?
**A.** 0.448

**Q.** What about the relative viability ([7]; first compound 0.003162 µM) of the same molecule?
**A.** 0.482

**Q.** What about the relative viability ([7]; first compound 0.01 µM) of the same molecule?
**A.** 0.44

**Q.** And the relative viability ([7]; first compound 0.03162 µM)?
**A.** 0.429

**Q.** What about the relative viability ([7]; first compound 0.1 µM) of the same molecule?
**A.** 0.37

**Q.** What about the relative viability ([8]; first compound 0.001 µM) of the same molecule?
**A.** 0.665

**Q.** And the relative viability ([8]; first compound 0.003162 µM)?
**A.** 0.67

**Q.** What about the relative viability ([8]; first compound 0.01 µM) of the same molecule?
**A.** 0.725

**Q.** What about the relative viability ([8]; first compound 0.03162 µM) of the same molecule?
**A.** 0.672

**Q.** What about the relative viability ([8]; first compound 0.1 µM) of the same molecule?
**A.** 0.68

**Q.** And the relative viability ([9]; first compound 0.001 µM)?
**A.** 0.219

**Q.** And the relative viability ([9]; first compound 0.003162 µM)?
**A.** 0.298

**Q.** What about the relative viability ([9]; first compound 0.01 µM) of the same molecule?
**A.** 0.294

**Q.** What about the relative viability ([9]; first compound 0.03162 µM) of the same molecule?
**A.** 0.228

**Q.** And the relative viability ([9]; first compound 0.1 µM)?
**A.** 0.221

**Q.** What about the relative viability ([10]; first compound 0.001 µM) of the same molecule?
**A.** 0.304

**Q.** And the relative viability ([10]; first compound 0.003162 µM)?
**A.** 0.292

**Q.** What about the relative viability ([10]; first compound 0.01 µM) of the same molecule?
**A.** 0.287

**Q.** And the relative viability ([10]; first compound 0.03162 µM)?
**A.** 0.293

**Q.** What about the relative viability ([10]; first compound 0.1 µM) of the same molecule?
**A.** 0.286

**Q.** And the relative viability ([11]; first compound 0.001 µM)?
**A.** 0.194

**Q.** What about the relative viability ([11]; first compound 0.003162 µM) of the same molecule?
**A.** 0.165

**Q.** What about the relative viability ([11]; first compound 0.01 µM) of the same molecule?
**A.** 0.211

**Q.** What about the relative viability ([11]; first compound 0.03162 µM) of the same molecule?
**A.** 0.173

**Q.** What about the relative viability ([11]; first compound 0.1 µM) of the same molecule?
**A.** 0.15
